Measured values from the supplement of paper PMC9763283.
Where “and” joins values, the source holds several entries; their conditions need not be identical. Identical values can stand only once. Counter-ions that a name gives are not always drawn.

Key:
Test in all cases: area under growth-rate inhibition curve (AUC GRI) (dimensionless (GR-based AUC)); higher = less growth inhibition
Details in all cases: exposure time: 72 h; concentrations: 0.1, 1, 10 uM
[1] = test system: MDA-MB-231
Method in brief: (§1)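 The area under the growth-rate inhibition curve was measured in six breast cancer cell line models, covering triple-negative lines and HER2+ lines, both parental and resistant to a two-drug combination. Cells were exposed to compound at 0.1, 1 or 10 µM for 72 h, fixed in 4% paraformaldehyde, and nuclei were stained with Hoechst 33342 or DAPI for imaging and counting. Day 0 plates, untreated Day 3 plates and DMSO controls served to correct growth across 2 biological replicates.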

[2] = test system: BT474-P
Method in brief: as §1

[3] = test system: MDA-MB-468
Method in brief: as §1

[4] = test system: SKBR3-P
Method in brief: as §1

[5] = test system: SKBR3-LTR
Method in brief: as §1

[6] = test system: BT474-LTR
Method in brief: as §1

| SMILES | area under growth-rate inhibition curve [1] | area under growth-rate inhibition curve [2] | area under growth-rate inhibition curve [3] | area under growth-rate inhibition curve [4] | area under growth-rate inhibition curve [5] | area under growth-rate inhibition curve [6] |
| --- | --- | --- | --- | --- | --- | --- |
| [Cl-].[H+].c1ccc(CN(CC2=NCCN2)c2ccccc2)cc1 [Antazoline hydrochloride] | 1.03 | 1.01 | 1.04 | 1.03 | 1.05 | 1.05 |
| CCOc1cc([C@@H](CS(C)(=O)=O)N2C(=O)c3cccc(NC(C)=O)c3C2=O)ccc1OC [Apremilast] | 1 | 1.01 | 1.03 | 1.02 | 1.05 | 1.04 |
| COC(=O)C1=CCCN(C)C1.[Br-].[H+] [Arecoline] | 1.03 | 1.04 | 0.988 | 1.02 | 1.03 | 1.06 |
| O=C1CCc2ccc(OCCCCN3CCN(c4cccc(Cl)c4Cl)CC3)cc2N1 [Aripiprazole] | 0.988 | 0.924 | 0.863 | 0.971 | 0.996 | 0.955 |
| CN1CC2c3ccccc3Oc3ccc(Cl)cc3C2C1.O=C(O)C=CC(=O)O (centres undefined) [Asenapine] | 1.02 | 1.01 | 0.959 | 0.975 | 0.993 | 1.06 |
| CCC1(c2c[nH]cn2)Cc2ccccc2C1 [Atipamezole hydrochloride] | 1.03 | 1.04 | 1.02 | 0.985 | 1.07 | 1.11 |
| CCC1(c2c[nH]cn2)Cc2ccccc2C1 [Atipamezole] | 1.02 | 1.04 | 1.01 | 1.01 | 1.09 | 1.08 |
| CNCC[C@@H](Oc1ccccc1C)c1ccccc1.Cl [Atomoxetine HCl] | 1.02 | 1.04 | 1.01 | 1.01 | 1.05 | 1.09 |
| CN1C2CCC1CC(OC(=O)C(CO)c1ccccc1)C2 (centres undefined) [Atropine] | 1.03 | 1.04 | 1.04 | 1.03 | 1.09 | 1.11 |
| CN1CCC(=C2c3ccccc3CCc3cccnc32)CC1.O=C(O)C=CC(=O)O.O=C(O)C=CC(=O)O [Azatadine dimaleate] | 1.05 | 1.07 | 1.05 | 1.02 | 1.01 | 1.12 |
| CN1CCCC(n2nc(Cc3ccc(Cl)cc3)c3ccccc3c2=O)CC1.[Cl-].[H+] (centres undefined) [Azelastine HCl] | 1.02 | 1.01 | 0.985 | 0.938 | 1.02 | 1.06 |
| CCc1cc(C(C)=NOCc2ccc(C3CCCCC3)c(C(F)(F)F)c2)ccc1CN1CC(C(=O)O)C1 [BAF312 (Siponimod)] | 1.01 | 1.01 | 0.961 | 0.99 | 0.968 | 0.989 |
| COc1ccc2c(c1)c(CC(=O)N1CCOCC1)c(C)n2C(=O)c1ccc(Cl)cc1 [BML-190] | 1.01 | 1.03 | 1.01 | 1.02 | 1.03 | 1.08 |
| COc1ccccc1N1CCN(CCN2C(=O)CC3(CCCC3)CC2=O)CC1.[Cl-].[Cl-].[H+].[H+] [BMY 7378] | 1.03 | 1.03 | 1.02 | 0.982 | 1.1 | 1.11 |
| CC(C)C[C@@H]1NC(=O)[C@@H](C(C)C)NC(=O)[C@@H]2CCCN2C(=O)[C@@H](CC(=O)O)NC(=O)[C@@H](Cc2c[nH]c3ccccc23)NC1=O [BQ-123] | 0.988 | 0.983 | 0.996 | 1.01 | 1.03 | 1.02 |
| CN(C)C(=O)Oc1cc(OC(=O)N(C)C)cc(C(O)CNC(C)(C)C)c1.[Cl-].[H+] (centres undefined) [Bambuterol HCl] | 1.04 | 1.06 | 1.03 | 1.01 | 1.03 | 1.09 |
| Cc1c(-c2ccc(O)cc2)n(Cc2ccc(OCCN3CCCCCC3)cc2)c2ccc(O)cc12.[Cl-].[H+] [Bazedoxifene HCl] | 0.9 | 0.755 | 0.898 | 0.956 | 0.944 | 0.949 |
| Cl.NC(CO)C(=O)NNCc1ccc(O)c(O)c1O (centres undefined) [Benserazide HCl] | 1.05 | 1.05 | 1.06 | 1.03 | 1.05 | 1.1 |
| CS(=O)(=O)[O-].C[NH+]1[C@@H]2CC[C@H]1C[C@@H](OC(c1ccccc1)c1ccccc1)C2 [Benztropine mesylate] | 1.03 | 1.03 | 0.994 | 0.986 | 1.01 | 1.08 |
| O=C(O)CCCN1CCC(OC(c2ccc(Cl)cc2)c2ccccn2)CC1.O=S(=O)(O)c1ccccc1 (centres undefined) [Bepotastine Besilate] | 1.03 | 1.03 | 1.03 | 0.992 | 1.06 | 1.09 |
| CC(C)NCC(O)COc1ccc(CCOCC2CC2)cc1.[Cl-].[H+] (centres undefined) [Betaxolol hydrochloride (Betoptic)] | 1.05 | 1.02 | 1.04 | 0.98 | 1.06 | 1.1 |
| CC(C)NCC(O)COc1ccc(CCOCC2CC2)cc1.[Cl-].[H+] (centres undefined) [Betaxolol] | 1.05 | 1.01 | 1.01 | 0.996 | 1.07 | 1.07 |
| CC(C[N+](C)(C)C)OC(N)=O.[Cl-] (centres undefined) [Bethanechol chloride] | 1.03 | 1.05 | 1.04 | 1.03 | 1.07 | 1.11 |
| Oc1c(Cl)cc(Cl)cc1Sc1cc(Cl)cc(Cl)c1O [Bithionol] | 1.03 | 0.999 | 0.985 | 1.01 | 1.02 | 1.06 |
| COc1ccccc1Oc1c(NS(=O)(=O)c2ccc(C(C)(C)C)cc2)nc(-c2ncccn2)nc1OCCO.O [Bosentan Hydrate] | 1.04 | 1.04 | 1.01 | 1.01 | 1.06 | 1.09 |

| SMILES | area under growth-rate inhibition curve [1] | area under growth-rate inhibition curve [2] | area under growth-rate inhibition curve [3] | area under growth-rate inhibition curve [4] | area under growth-rate inhibition curve [5] | area under growth-rate inhibition curve [6] |
| --- | --- | --- | --- | --- | --- | --- |
| COc1ccccc1Oc1c(NS(=O)(=O)c2ccc(C(C)(C)C)cc2)nc(-c2ncccn2)nc1OCCO [Bosentan] | 1.03 | 1.03 | 1.03 | 1.02 | 1.05 | 1.08 |
| Oc1ccc2ccc(OCCCCN3CCN(c4cccc5sccc45)CC3)cc2n1 [Brexpiprazole] | 1 | 1.04 | 0.99 | 1.03 | 1.02 | 1.05 |
| CN(C)CCC(c1ccc(Br)cc1)c1ccccn1.O=C(O)/C=C\C(=O)O (centres undefined) [Brompheniramine hydrogen maleate] | 1.03 | 1.05 | 1.04 | 0.998 | 1.04 | 1.09 |
| CCCC1O[C@@H]2C[C@H]3[C@@H]4CCC5=CC(=O)C=C[C@]5(C)[C@H]4[C@@H](O)C[C@]3(C)[C@]2(C(=O)CO)O1 (some centres undefined) [Budesonide] | 0.971 | 0.901 | 1.03 | 0.912 | 1.03 | 0.98 |
| CCCCN1CCCCC1C(=O)[NH2+]c1c(C)cccc1C.[Cl-] (centres undefined) [Bupivacaine HCl] | 1.04 | 1.1 | 1.07 | 1.06 | 1.1 | 1.12 |
| O=C1CC2(CCCC2)CC(=O)N1CCCCN1CCN(c2ncccn2)CC1.[Cl-].[H+] [Buspirone hydrochloride] | 1 | 1.01 | 1.01 | 1.01 | 1.03 | 1.02 |
| C=CCN1CC(C(=O)N(CCCN(C)C)C(=O)NCC)CC2c3cccc4[nH]cc(c34)CC21 (centres undefined) [Cabergoline] | 1.04 | 1.01 | 1.05 | 1.03 | 1.05 | 1.05 |
| Cc1ccc(C2OC(CO)C(O)C(O)C2O)cc1Cc1ccc(-c2ccc(F)cc2)s1 (centres undefined) [Canagliflozin] | 1.02 | 1.02 | 1 | 1.03 | 1.05 | 1.07 |
| CN(C)C(=O)N[C@H]1CC[C@H](CCN2CCN(c3cccc(Cl)c3Cl)CC2)CC1 [Cariprazine] | 1.02 | 1.02 | 1.02 | 1.01 | 1.05 | 1.04 |
| CC(C)(C)NCC(O)COc1cccc2c1CCC(=O)N2.[Cl-].[H+] (centres undefined) [Carteolol HCl] | 1.04 | 1.05 | 1.03 | 1.04 | 1.1 | 1.11 |
| COc1ccccc1OCCNCC(O)COc1cccc2[nH]c3ccccc3c12 (centres undefined) [Carvedilol] | 1.03 | 0.957 | 0.937 | 1 | 1.07 | 1.03 |
| O=C(O)COCCN1CCN(C(c2ccccc2)c2ccc(Cl)cc2)CC1.[Cl-].[Cl-].[H+].[H+] (centres undefined) [Cetirizine DiHCl] | 1.02 | 1.03 | 1 | 0.997 | 1.03 | 1.07 |
| COc1ccc(C(Cl)=C(c2ccc(OC)cc2)c2ccc(OC)cc2)cc1 [Chlorotrianisene] | 1.01 | 0.983 | 1 | 0.987 | 1.05 | 1.08 |
| CN(C)CCC(c1ccc(Cl)cc1)c1ccccn1.O=C(O)/C=C\C(=O)O (centres undefined) [Chlorpheniramine Maleate] | 1.03 | 1.05 | 1.04 | 1.01 | 1.03 | 1.12 |
| C[NH+](C)CCCN1c2ccccc2Sc2ccc(Cl)cc21.[Cl-] [Chlorpromazine Hydrochloride] | 0.985 | 1 | 0.989 | 0.994 | 1.02 | 0.991 |
| CN(C)CC/C=C1/c2ccccc2Sc2ccc(Cl)cc21 [Chlorprothixene] | 1.02 | 0.997 | 0.931 | 0.97 | 1.03 | 1.01 |
| CC(C)C(=O)OCC(=O)[C@@]12O[C@H](C3CCCCC3)O[C@@H]1C[C@H]1[C@@H]3CCC4=CC(=O)C=C[C@]4(C)[C@H]3[C@@H](O)C[C@@]12C [Ciclesonide] | 0.996 | 0.947 | 1.03 | 0.955 | 1.05 | 0.999 |
| CC1(C)C[C@@H]1C(=O)N/C(=C\CCCCSC[C@H](N)C(=O)O)C(=O)[O-].[Na+] [Cilastatin sodium] | 1 | 1.03 | 1.02 | 1.01 | 1.03 | 1.05 |
| CCOC(=O)[C@H](CCc1ccccc1)N[C@H]1CCCN2CCC[C@@H](C(=O)O)N2C1=O.O [Cilazapril Monohydrate] | 1.03 | 1.04 | 1.04 | 1.04 | 1.07 | 1.1 |
| O=C1CCc2cc(OCCCCc3nnnn3C3CCCCC3)ccc2N1 [Cilostazol] | 1.05 | 1 | 1.03 | 1.03 | 1.06 | 1.04 |
| CNC(=NCCSCc1nc[nH]c1C)NC#N [Cimetidine] | 1.04 and 1.05 | 1.02 and 1.06 | 1.04 and 1.03 | 1.02 | 1.05 and 1.06 | 1.05 and 1.12 |
| C[C@@H](NCCCc1cccc(C(F)(F)F)c1)c1cccc2ccccc12.[Cl-].[H+] [Cinacalcet HCl] | 0.931 | 0.9 | 0.896 | 0.909 | 0.883 | 0.922 |
| O=C(O)C=CC(=O)O.O=C(c1ccc(OCCCc2c[nH]cn2)cc1)C1CC1 [Ciproxifan] | 1.02 | 0.976 | 0.991 | 1.01 | 1.07 | 1.06 |
| COc1ccc(C[C@@H]2c3cc(OC)c(OC)cc3CC[N@+]2(C)CCC(=O)OCCCCCOC(=O)CC[N@@+]2(C)CCc3cc(OC)c(OC)cc3[C@H]2Cc2ccc(OC)c(OC)c2)cc1OC.O=S(=O)([O-])c1ccccc1.O=S(=O)([O-])c1ccccc1 [Cisatracurium Besylate] | 0.997 | 0.998 | 0.988 | 0.961 | 1.01 | 1.01 |
